From article PMC9878661, “Syntheses, Structural Characterization, and Cytotoxicity Assessment of Novel Mn(II) and Zn(II) Complexes of Aroyl-Hydrazone Schiff Base Ligand” (ACS Omega, 2023)

Biological target: T1, bovine serum albumin (BSA) (Bos taurus, UniProt P02769)
T1 construct: gene ALB
Assay: UV-vis absorption titration of BSA at […] nm (double reciprocal plot)
Format: binding
Details: read-out: UV-vis absorption titration of BSA at 280 nm (double reciprocal plot) (converted)

T1 sequence (P02769 25-607): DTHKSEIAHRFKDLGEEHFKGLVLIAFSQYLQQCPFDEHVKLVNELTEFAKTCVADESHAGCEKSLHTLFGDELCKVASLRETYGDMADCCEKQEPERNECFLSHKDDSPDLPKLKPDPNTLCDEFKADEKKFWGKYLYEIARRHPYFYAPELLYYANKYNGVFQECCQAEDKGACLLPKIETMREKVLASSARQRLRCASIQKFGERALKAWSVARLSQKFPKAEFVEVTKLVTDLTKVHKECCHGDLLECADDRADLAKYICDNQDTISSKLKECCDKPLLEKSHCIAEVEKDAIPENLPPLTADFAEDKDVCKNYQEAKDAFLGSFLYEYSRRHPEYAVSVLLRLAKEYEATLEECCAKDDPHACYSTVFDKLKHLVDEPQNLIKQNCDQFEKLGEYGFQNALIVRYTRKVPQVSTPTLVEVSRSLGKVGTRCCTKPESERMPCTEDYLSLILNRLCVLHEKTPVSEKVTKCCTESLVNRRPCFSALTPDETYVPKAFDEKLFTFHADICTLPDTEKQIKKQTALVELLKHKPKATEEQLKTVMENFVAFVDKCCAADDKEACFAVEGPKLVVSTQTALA

## O=C(NN=Cc1c[nH]c2ccccc12)c1ccncc1 [L1, N′-[(E)-3-Indol-3-ylmethylene] isonicotinohydrazide]
  Kd: 261 µM
